From publication PMC6792352, “Limited Chemical Structural Diversity Found to Modulate Thyroid Hormone Receptor in the Tox21 Chemical Library” (Environmental Health Perspectives, 2019)
Where a name gives a salt, the structure may show the parent alone. Read-outs that look alike come from different tables or passages of the source.

Columns and labels:
GH3-TRE-Luc cell line = settings: read-out: AC50 (uM) modified / 1000, viability, 1 nM T3 present, 24 h
in vitro = settings: rat, gh3-tre-luc cells, AC50 (uM) modified / 1000

CC/C(=C(/CC)c1ccc(O)cc1)c1ccc(O)cc1 [Diethylstilbestrol] showed a CC50 (GH3-TRE-Luc cell line; Tox21_110001=Tox21_300526) of 28.7 µM and a CC50 at 24 h (in vitro) of 55.5 µM.
Compound CC(CCc1ccccc1)NCC(O)c1ccc(O)c(C(N)=O)c1 (stereo not shown) [Labetalol hydrochloride] has a CC50 (GH3-TRE-Luc cell line; Tox21_110001=Tox21_302725) of 24.7 µM and a CC50 at 24 h (in vitro) of 14.1 µM.
Work on O=[N+]([O-])c1ccc(Cl)c([N+](=O)[O-])c1 [1-Chloro-2,4-dinitrobenzene] yielded a CC50 (GH3-TRE-Luc cell line; Tox21_110001=Tox21_302802) of 10.1 µM and a CC50 at 24 h (in vitro) of 12.5 µM.
For CC(C)C[C@H](NC(=O)[C@H](Cc1ccccc1)NC(=O)c1cnccn1)B(O)O [Bortezomib], the CC50 (GH3-TRE-Luc cell line; Tox21_110001=Tox21_112672) was 0.00954 µM and the CC50 at 24 h (in vitro) was 0.0167 µM.
With Cc1ccc(O)c(C(C)(C)C)c1 [2-tert-Butyl-4-methylphenol] the CC50 (GH3-TRE-Luc cell line; Tox21_110001=Tox21_303003) was 69.9 µM and the CC50 at 24 h (in vitro) was 89.6 µM.
Compound CC(C)=CC1C(C(=O)OCc2coc(Cc3ccccc3)c2)C1(C)C (stereo not shown) [Resmethrin] has a CC50 (GH3-TRE-Luc cell line; Tox21_110001=Tox21_300920) of 55.3 µM and a CC50 at 24 h (in vitro) of over 90 µM.
In the case of CC[n+]1c(-c2ccccc2)c2cc(N)ccc2c2ccc(N)cc21 [Ethidium bromide], the CC50 (GH3-TRE-Luc cell line; Tox21_110001=Tox21_111123) is reported as 37.9 µM and the CC50 at 24 h (in vitro) is reported as 47.9 µM.
O=C1CN(/N=C/c2ccc([N+](=O)[O-])o2)C(=O)N1 [Nitrofurantoin] gave a CC50 (GH3-TRE-Luc cell line; Tox21_110001=Tox21_300602) of 70.6 µM and a CC50 at 24 h (in vitro) of 62.5 µM.
O=S(=O)(O)c1ccc(N=Nc2c(O)ccc3cc(S(=O)(=O)O)ccc23)cc1 [FD&C Yellow 6] gave a CC50 (GH3-TRE-Luc cell line; Tox21_110001=Tox21_300407) of 65.1 µM and a CC50 at 24 h (in vitro) of 38.5 µM.
In the case of CCCN(CCOc1c(Cl)cc(Cl)cc1Cl)C(=O)n1ccnc1 [Prochloraz], the CC50 (GH3-TRE-Luc cell line; Tox21_110001=Tox21_301179) is reported as 70.8 µM and the CC50 at 24 h (in vitro) is reported as 81.4 µM.
Cc1ccc(/N=C/N(C)/C=N/c2ccc(C)cc2C)c(C)c1 [Amitraz] gave a CC50 (GH3-TRE-Luc cell line; Tox21_110001=Tox21_300930) of 62.8 µM and a CC50 at 24 h (in vitro) of 59 µM.
In the case of Cc1cc(C2(c3cc(C)c(O)cc3C)OS(=O)(=O)c3ccccc32)c(C)cc1O [p-Xylenol blue], the CC50 (GH3-TRE-Luc cell line; Tox21_110001=Tox21_303062) is reported as 47.5 µM and the CC50 at 24 h (in vitro) is reported as 56.6 µM.
Work on CC[C@@]1([C@@H]2O[C@@H]([C@H]3O[C@@](O)(CO)[C@H](C)C[C@@H]3C)C[C@@H]2C)CC[C@H]([C@]2(C)CC[C@]3(C[C@H](O)[C@@H](C)[C@@H]([C@@H](C)[C@@H](OC)[C@H](C)C(=O)O)O3)O2)O1 [Monensin sodium] yielded a CC50 (GH3-TRE-Luc cell line; Tox21_110001=Tox21_113191) of 0.38 µM and a CC50 at 24 h (in vitro) of 0.446 µM.
Work on O=[N+]([O-])c1cc(N(CCO)CCO)ccc1NCCO [HC Blue 2] yielded a CC50 (GH3-TRE-Luc cell line; Tox21_110001=Tox21_302947) of 91.6 µM and a CC50 at 24 h (in vitro) of over 90 µM.
CCCCC/C=C\C/C=C\CCCCCCCC(=O)OC [Methyl linoleate] gave a CC50 (GH3-TRE-Luc cell line; Tox21_110001=Tox21_302917) of 74 µM and a CC50 at 24 h (in vitro) of over 90 µM.
Work on C(=NC1CCCCC1)=NC1CCCCC1 [Dicyclohexylcarbodiimide] yielded a CC50 (GH3-TRE-Luc cell line; Tox21_110001=Tox21_303237) of 49.8 µM and a CC50 at 24 h (in vitro) of over 90 µM.
Compound OC(c1ccc(Cl)cc1)(c1cncnc1)c1ccccc1Cl (stereo not shown) [Fenarimol] has a CC50 (GH3-TRE-Luc cell line; Tox21_110001=Tox21_300650) of 82.8 µM and a CC50 at 24 h (in vitro) of over 90 µM.
O=S(=O)(O)c1cc(S(=O)(=O)O)c2c(N=Nc3ccccc3)c(O)ccc2c1 [C.I. Acid Orange 10] showed a CC50 (GH3-TRE-Luc cell line; Tox21_110001=Tox21_303019) of 48.6 µM and a CC50 at 24 h (in vitro) of 46.4 µM.
CC(C)(C)c1cc(C(C)(C)C)c(O)c(C(C)(C)C)c1 [2,4,6-Tris(tert-butyl)phenol] gave a CC50 (GH3-TRE-Luc cell line; Tox21_110001=Tox21_300121) of 28.2 µM and a CC50 at 24 h (in vitro) of 27.4 µM.
With Clc1ccc(C(c2ccccc2Cl)C(Cl)Cl)cc1 (stereo not shown) [o,p'-DDD] the CC50 (GH3-TRE-Luc cell line; Tox21_110001=Tox21_110103) was 41.9 µM and the CC50 at 24 h (in vitro) was 56.7 µM.
Work on c1cc(OCC2CO2)ccc1Cc1ccc(OCC2CO2)cc1 (stereo not shown) [Bis[4-(glycidyloxy)phenyl]methane] yielded a CC50 (GH3-TRE-Luc cell line; Tox21_110001=Tox21_303420) of 48.6 µM and a CC50 at 24 h (in vitro) of 42.4 µM.
With CC(=O)[C@H]1CC[C@H]2[C@@H]3CCC4=CC(=O)CC[C@]4(C)[C@H]3CC[C@]12C [Progesterone] the CC50 (GH3-TRE-Luc cell line; Tox21_110001=Tox21_300307) was 81.7 µM and the CC50 at 24 h (in vitro) was 85.9 µM.
O=[N+]([O-])C(Br)(CO)CO [Bronopol] showed a CC50 (GH3-TRE-Luc cell line; Tox21_110001=Tox21_112079) of 21.8 µM and a CC50 at 24 h (in vitro) of 22 µM.
With OC(CCN1CCCCC1)(c1ccccc1)C1CC2C=CC1C2 (stereo not shown) [Biperiden hydrochloride] the CC50 (GH3-TRE-Luc cell line; Tox21_110001=Tox21_113064) was 27 µM and the CC50 at 24 h (in vitro) was 22.6 µM.
Work on CCNc1nc(NC(C)(C)C)nc(SC)n1 [Terbutryn] yielded a CC50 (GH3-TRE-Luc cell line; Tox21_110001=Tox21_303141) of 74.8 µM and a CC50 at 24 h (in vitro) of over 90 µM.
With CCOC(=O)C1=C[C@]2(CC)CCCN3CCc4c(n1c1ccccc41)[C@@H]32 [Vinpocetine] the CC50 (GH3-TRE-Luc cell line; Tox21_110001=Tox21_110839) was 12 µM and the CC50 at 24 h (in vitro) was 22.7 µM.
O=C(Nc1ccc([N+](=O)[O-])cc1Cl)c1cc(Cl)ccc1O [Niclosamide] gave a CC50 (GH3-TRE-Luc cell line; Tox21_110001=Tox21_110209) of 0.618 µM and a CC50 at 24 h (in vitro) of 0.487 µM.
With CC[C@H](C)C(=O)O[C@H]1C[C@@H](C)C=C2C=C[C@H](C)[C@H](CC[C@@H]3C[C@@H](O)CC(=O)O3)[C@H]21 [Lovastatin] the CC50 (GH3-TRE-Luc cell line; Tox21_110001=Tox21_110888) was 43 µM, the CC50 (GH3-TRE-Luc cell line; Tox21_110001=Tox21_300268) was 67 µM and the CC50 at 24 h (in vitro) was 73.4 µM.
Cc1cc(C(C)(C)CC(C)(C)C)ccc1OCCOCC[N+](C)(C)Cc1ccccc1 [Methylbenzethonium chloride] showed a CC50 (GH3-TRE-Luc cell line; Tox21_110001=Tox21_301446) of 7.92 µM and a CC50 at 24 h (in vitro) of 9.38 µM.
For CCc1cccc(CC)c1N(COC)C(=O)CCl [Alachlor], the CC50 (GH3-TRE-Luc cell line; Tox21_110001=Tox21_300713) was 78.7 µM and the CC50 at 24 h (in vitro) was over 90 µM.
Compound C=CC(=O)OCC(CO)(COC(=O)C=C)COC(=O)C=C [Pentaerythritol triacrylate] has a CC50 (GH3-TRE-Luc cell line; Tox21_110001=Tox21_303252) of 2.61 µM and a CC50 at 24 h (in vitro) of 1.77 µM.
CCCCCCCCCCCCCCCC[N+](C)(C)Cc1ccccc1 [Benzylhexadecyldimethylammonium chloride] gave a CC50 (GH3-TRE-Luc cell line; Tox21_110001=Tox21_112574) of 13.4 µM and a CC50 at 24 h (in vitro) of 21.5 µM.
CCCCN(CC)c1c([N+](=O)[O-])cc(C(F)(F)F)cc1[N+](=O)[O-] [Benfluralin] showed a CC50 (GH3-TRE-Luc cell line; Tox21_110001=Tox21_300774) of 46 µM and a CC50 at 24 h (in vitro) of over 90 µM.
In the case of c1ccc(Nc2ccc3ccccc3c2)cc1 [N-Phenyl-2-naphthylamine], the CC50 (GH3-TRE-Luc cell line; Tox21_110001=Tox21_302900) is reported as over 90 µM and the CC50 at 24 h (in vitro) is reported as 47.3 µM.
Work on CN1CCc2cccc3c2[C@H]1Cc1ccc(O)c(O)c1-3 [Apomorphine hydrochloride hydrate] yielded a CC50 (GH3-TRE-Luc cell line; Tox21_110001=Tox21_303480) of 26.7 µM and a CC50 at 24 h (in vitro) of 48.2 µM.
Work on CCCCCCCCn1sccc1=O [Octhilinone] yielded a CC50 (GH3-TRE-Luc cell line; Tox21_110001=Tox21_300566) of 3.8 µM and a CC50 at 24 h (in vitro) of 5.52 µM.
Compound Nc1ccc(Cl)cc1N [4-Chloro-1,2-diaminobenzene] has a CC50 (GH3-TRE-Luc cell line; Tox21_110001=Tox21_400037) of over 90 µM and a CC50 at 24 h (in vitro) of 73 µM.
Compound O=Cc1ccccc1C=O [1,2-Benzenedicarboxaldehyde] has a CC50 (GH3-TRE-Luc cell line; Tox21_110001=Tox21_112347) of 8.06 µM and a CC50 at 24 h (in vitro) of 4.89 µM.
With Oc1ccc(C(c2ccc(O)cc2)(C(F)(F)F)C(F)(F)F)cc1 [Bisphenol AF] the CC50 (GH3-TRE-Luc cell line; Tox21_110001=Tox21_303641) was 54.4 µM and the CC50 at 24 h (in vitro) was 32.9 µM.
